Results: patent US12599647B2, “Peptide amide composition and preparation method therefor” (Xizang Haisco Pharmaceutical Co., Ltd., priority 2019, dated 2026)
Several values for one entry are separate records, joined by “and”; a condition that tells them apart may be missing. Identical values can stand only once.

Tests used:
Type in all cases: physicochemical
[1] = Related substances in compound II solutions at different pH values (Table 1); settings: aqueous solutions, pH adjusted with glacial acetic acid or tartaric acid; 40°C±2°C, 10 days
Method: (§1) 750 ml of water for injection was measured and taken; nitrogen was charged beneath the surface of the liquid for about 20 min; and the water temperature was controlled to be 50° C. or less. 37.5 mg of compound II was weighed, added to the above-mentioned water for injection and stirred to dissolution and clarification to obtain solution (1). Solution (1) was adjusted with glacial acetic acid (source: Chengdu Kelong Chemical Co., Ltd.) and tartaric acid to different pH values, respectively, and aqueous solutions containing compound II at different pH values were obtained. The aqueous solutions were placed under the conditions of 40° C.±2° C. for 10 days, and the performance of related substances in the solutions at different pH values was examined (including the solution at a pH value not being adjusted), with data shown in Table 1.

[2] = Related substances in compound II solutions at pH range 3-5.5 (Table 2); settings: aqueous solution, pH adjusted with glacial acetic acid; 40°C±2°C, 10 days
Method: as §1, with “Considering the operability of industrial production, we examined the stability of solutions at a pH range of 3-5.5. 750” for “750”, “Ltd.)” for “Ltd.) and tartaric acid”, “values,” for “values, respectively,”, “examined,” for “examined (including the solution at a pH value not being adjusted),”, “2.” for “1.”

[3] = Related substances of formulation solutions for injection after high temperature acceleration at 40°C; settings: compound II raw material (stored refrigerated 2°C-8°C), control, 0 days
Method: The sample of Formulation 1 solution for injection was placed under the conditions of 40° C.±2° C. for 5 days; compound II raw material (stored under refrigerated conditions of 2° C.-8° C.) was used as a control; and changes of related substances in the sample were examined, with data shown in Table 3.
Formulation 2 solution for injection was placed under the conditions of 40° C. 2° C. for 5 days; compound II raw material (stored under refrigerated conditions of 2° C.-8° C.) was used as a control; and changes of related substances in the sample were examined, with data shown in Table 4.
Formulation 3 solution for injection was placed under the conditions of 40° C. 2° C. for 5 days; compound II raw material (stored under refrigerated conditions of 2° C.-8° C.) was used as a control; and changes of related substances in the sample were examined, with data shown in Table 5.
Formulation 4 solution for injection was placed under the conditions of 40° C. 2° C. for 9 days; compound II raw material (stored under refrigerated conditions of 2° C.-8° C.) was used as a control; and changes of related substances in the sample were examined, with data shown in Table 6.
Formulation 5 solution for injection was placed under the conditions of 40° C. […]

Structure (SMILES): CC(=O)N1CC2(CCN(C(=O)[C@@H](CCCCN)NC(=O)[C@@H](CC(C)C)NC(=O)[C@@H](Cc3ccccc3)NC(=O)[C@H](N)Cc3ccccc3)CC2)C1 [Compound II]
- pH value of best stability [1]: about 4
- pH range at which the product is stable [2]: 3-5.5
- Total impurity (%) [3]: 1.098% and 1.238%
